# Results reported in PMC5880945, “D-Arg^0-Bradykinin-Arg-Arg, a Latent Vasoactive Bradykinin B2 Receptor Agonist Metabolically Activated by Carboxypeptidases” (Frontiers in Pharmacology, 2018).
# Entries after “also recorded” stand apart in the source; their conditions may differ. Square brackets hold non-standard residues; d marks the D form. Ends that are not written are not given here.
# Experiments:
# anesthetized rats [1] = assay: In vivo hemodynamics in anesthetized rats pretreated with icatibant or peptidase inhibitors; set-up: species or system male Sprague-Dawley rats; details: for Mean arterial blood pressure, basal after pre-treatment / Heart rate, basal after pre-treatment: 15 min after i.v. pretreatment, mean ± SEM, n = 10 icatibant, 9 enalaprilat, 8 Plummer’s, 10 combination; for Mean arterial blood pressure, basal after pre-treatment: untreated control 93.2 ± 3.3 (n = 13), ANOVA N.S.; for Heart rate, basal after pre-treatment: untreated control 352 ± 10 (n = 13), ANOVA P < 0.001, * icatibant, ** others
# Description: All surgical and experimental procedures were reviewed and approved by the Animal Care and Handling Committee of Laval University, in accordance with the Canadian Council on Animal Care. Experiments were performed on male Sprague-Dawley rats (300–375 g) purchased from Charles River Laboratories (St-Constant, QC, Canada). The rats were housed in a light-controlled (12:12-h light-dark cycle (lights on at 0600)) and temperature-regulated room (22 ± 1°C). Animals had free access to normal chow diet and tap water. They were allowed to acclimate to their environmental conditions for 1 week prior to being studied. At the end of the acclimation period, the rats were anesthetised with sodium pentobarbital (50 mg kg^-1, i.p., supplemented as required) and had one catheter implanted into the right jugular vein [for intravenous (i.v.) injection] and one into the left femoral artery [for direct and continuous measurement of blood pressure and heart rate as previously described ([Jean et al., 2016])]. Experiments started at least 20 min following the end of surgery in anesthetised rats.
# The mechanism subserving the cardiovascular responses to random i.v. injections of r-BK and r-BK-RR at the dose of 1.6 μg/kg, was evaluated in rats pretreated with specific antagonists. In these experiments, the rats were separated in four groups depending on the antagonist tested, and the cardiovascular responses to the peptides agonists were compared with those elicited in the untreated control group of rats. In the first group of treated rats, the long acting and selective B2R antagonist, icatibant (Hoe 140) (D-Arg-[Hyp^3, Thi^5, D-Tic^7, Oic^8]) bradykinin ([Hock et al., 1991]; [Wirth et al., 1991]; [Rhaleb et al., 1992]; [Marceau et al., 1994]) was intravenously administered as bolus (75 μg/kg, 0.1 ml) following a 10 min period of baseline measurements of heart rate and blood pressure. Fifteen minutes later, recording changes in blood pressure and heart rate elicited by i.v. injection of peptide vehicle (saline-BSA 0.1%) followed by random injections of r-BK and r-BK-RR, were made as described above. The next peptide was administered once all recorded cardiovascular parameters had returned to baseline after the previous injection. Further experiments were made in a second group of rats pretreated with the ACE inhibitor, enalaprilat. In these experiments, enalaprilat was intravenously administered as bolus ([…], 0.1 ml) 15 min before the i.v. injections of peptide vehicle and both customized peptides, as above. Further experiments were also carried out in rats pretreated with the Plummer’s inhibitor (mercaptomethyl-3-guanidinoethylthiopropanoic acid) a high affinity inhibitor of arginine carboxypeptidases that is an arginine analog ([Plummer and Ryan, 1981]). The inhibitor was intravenously administered as bolus (0.75 mg/kg, 0.1 ml) followed 15 min later by the i.v. injections of saline-BSA 0.1%, and then r-BK and -r-BK-RR (1.6 μg/kg) in random order. A fourth group of rats was pretreated with a combined i.v. injection of enalaprilat (0.1 mg/kg) and the Plummer’s inhibitor (0.75 mg/kg) 15 min before the randomized i.v. injections of both customized peptides, as above. The doses of different inhibitors were based on preliminary experiments and from previous studies performed by us and others ([Ishida et al., 1989]; [Wirth et al., 1991]; [Muto et al., 2003]; [Jean et al., 2016]). At the end of the experiments the rats were euthanized with an overdose of sodium pentobarbital (240 mg/kg, i.v.).
# Results are presented as means ± SEM. Radioligand binding data were fitted by non-linear regression to a one-site competition equation using a least-square method (Prism 5.0, GraphPad Software Inc., San Diego, CA, United States) and IC50 values calculated from this procedure. […]
# [2] = tested on: human ACE-mCherry fusion protein; assay: Competition of a fluorogenic ACE substrate by synthetic kinins (recombinant ACE-mCherry); assay type: biochemical; details: enalaprilat 1 μM; 15 min, 37°C; fluorescence
# Description: The source of enzyme was whole HEK 293a cells grown in 24-well plates and transfected as described with a vector coding for the human ACE-mCherry fusion protein, an active enzyme ([Charest-Morin and Marceau, 2016]). The culture medium was removed from cell wells, which were rinsed twice with PBS. The fluorogenic substrate (final concentration 20 μM), and, optionally, a competitor (BK, r-BK, or r-BK-RR in variable concentrations, or the ACE inhibitor enalaprilat 1 μM) were added in 250 μl PBS in each well; the plates were then incubated for 15 min at 37°C. At this point, the well supernatants were transferred in Eppendorf tubes, centrifuged 30 s at 12500 rpm to remove debris and 100 μl of this fluid transferred in wells of 96-well plate (black background) to read the fluorescence (excitation 320 nm, emission 420 nm) using a TECAN Infinite® 200 PRO microplate reader. Results were expressed as the percent of the fluorescence in wells containing ACE-mCherry and the substrate without competitors. Controls included mock-transfected cells and enalaprilat-treated cells.
# [3] = tested on: ACE (two separate catalytic sites); details: ref Araujo et al., 2000; cited from earlier work
# From the text: The source of enzyme was whole HEK 293a cells grown in 24-well plates and transfected as described with a vector coding for the human ACE-mCherry fusion protein, an active enzyme ([Charest-Morin an ...
# [4] = tested on: GFP-tagged rabbit B2R (B2R-GFP); assay: B2R-GFP endocytosis and recycling, epifluorescence microscopy, HEK 293 cells; assay type: cell-based; details: 30 min vs 3 h of stimulation
# anesthetized rats [5] = tested on: anesthetized rats; set-up: method as in 2 sources, one per row (each row's own in cited_ref): ref Jean et al., 2016; Charest-Morin et al., 2017 ||| ref Jean et al., 2016; details: intravenous boluses; ref Jean et al., 2016; Charest-Morin et al., 2017; cited from earlier work
# [6] = target: T1, myc-tagged rat B2R construction (rat, UniProt P25023 1-396); assay: radioligand binding; competition of the binding of 3 nM [^3H]BK to adherent intact HEK 293 cells stably expressing myc-tagged rat B2R by unlabeled peptides; 0°C; peptidase inhibitors including captopril and PMSF; one-site competition fit; details: one partner purified
# T1 construct: bradykinin B2 receptor, rat; also called rat myc-B2R; rat recombinant myc-B2R; source: HEK 293 cells stably expressing the construction, adherent intact cells
# T1 sequence (looked up): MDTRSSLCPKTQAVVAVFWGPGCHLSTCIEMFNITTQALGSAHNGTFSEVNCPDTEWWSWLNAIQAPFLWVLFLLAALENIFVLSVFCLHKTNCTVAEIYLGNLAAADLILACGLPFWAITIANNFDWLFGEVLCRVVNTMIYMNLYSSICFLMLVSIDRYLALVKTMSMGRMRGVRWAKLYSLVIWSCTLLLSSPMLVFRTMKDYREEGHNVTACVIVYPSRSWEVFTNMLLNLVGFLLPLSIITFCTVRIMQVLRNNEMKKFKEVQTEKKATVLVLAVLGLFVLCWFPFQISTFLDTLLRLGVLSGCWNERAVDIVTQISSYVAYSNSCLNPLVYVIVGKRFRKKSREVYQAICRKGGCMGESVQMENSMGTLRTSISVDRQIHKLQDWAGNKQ
# [7] = target: T2, endogenous B2R of the human isolated umbilical vein (human (endogenous in umbilical vein), UniProt P30411 1-391); assay: cell-based or functional assay
# T2 sequence (looked up): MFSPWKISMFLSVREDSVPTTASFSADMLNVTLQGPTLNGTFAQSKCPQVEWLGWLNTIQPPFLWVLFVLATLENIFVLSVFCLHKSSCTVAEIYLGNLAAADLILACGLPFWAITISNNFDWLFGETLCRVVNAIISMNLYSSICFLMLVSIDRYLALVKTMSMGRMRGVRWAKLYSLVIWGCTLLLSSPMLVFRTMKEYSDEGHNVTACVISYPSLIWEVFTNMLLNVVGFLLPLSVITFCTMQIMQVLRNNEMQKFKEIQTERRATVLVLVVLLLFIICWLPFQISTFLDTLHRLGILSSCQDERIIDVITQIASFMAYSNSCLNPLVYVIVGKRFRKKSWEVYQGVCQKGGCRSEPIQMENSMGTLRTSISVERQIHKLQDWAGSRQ
molecule,measurement,setting,value
"C[C@H](N[C@@H](CCc1ccccc1)C(=O)O)C(=O)N1CCC[C@H]1C(=O)O [Enalaprilat, enalaprilat, reference compound]","Mean arterial blood pressure, basal after pre-treatment",anesthetized rats [1],89.8 ± 4.1
same,"Heart rate, basal after pre-treatment",anesthetized rats [1],412 ± 11^∗∗
same,"hydrolysis of ACE substrate by ACE-expressing cells treated with inhibitor, in words",[2],did not catalyze the reaction
"N=C(N)NCCSCC(CS)C(=O)O (stereo not shown) [Plummer’s inhibitor, mercaptomethyl-3-guanidinoethylthiopropanoic acid, reference compound]","Mean arterial blood pressure, basal after pre-treatment",anesthetized rats [1],90.3 ± 3.6
same,"Heart rate, basal after pre-treatment",anesthetized rats [1],407 ± 10^∗∗
Abz-Phe-Arg-Lys(Dnp)-Pro-OH [internally quenched fluorogenic ACE substrate],"affinity for the two catalytic sites of ACE, in words",[3],approximately equal low micromolar affinity
"D-Arg-[Hyp3,Thi5,D-Tic7,Oic8]bradykinin [Icatibant, reference compound]","Mean arterial blood pressure, basal after pre-treatment",anesthetized rats [1],93.7 ± 3.3
same,"Heart rate, basal after pre-treatment",anesthetized rats [1],396 ± 10^∗
same,"inhibition of hypotensive effects of r-BK and r-BK-RR, in words","anesthetized rats [1]; icatibant i.v. pretreatment, r-BK or r-BK-RR 1.6 μg/kg i.v.",their effects were inhibited by icatibant
"D-Arg-[Hyp^3, Igl^5, Oic^7, Igl^8]-BK [B-9972, reference compound]","persistence of B2R-GFP endocytosis, in words",[4],persistent morphologic response; also recorded: prolonged endocytosis of B2R-GFP
same,"duration of action vs BK in vivo, in words",anesthetized rats [5],not remarkably more longer acting than BK in vivo
"[dR]RPPGFSPFR (D-Arg^0, N-terminal extension (a D-residue); bradykinin, whole nonapeptide; also called r-BK; D-Arg^0-bradykinin; source: synthetic peptide (CanPeptide, Inc., solid-phase, ≥98.3% pure)) [D-Arg^0-BK]",IC50,[6],13.3 nM
same,"contractile EC50, human isolated umbilical vein, control",[7],62.4 nM
same,"contractile EC50, human isolated umbilical vein, with Plummer’s inhibitor 1 μM",[7],68.4 nM
same,"contractile EC50, human isolated umbilical vein, with enalaprilat 1 μM",[7],61.6 nM
same,"contractile EC50, human isolated umbilical vein, with enalaprilat 1 μM + Plummer’s inhibitor 1 μM",[7],45.1 nM
"[dR]RPPGFSPFRRR (D-Arg^0, N-terminal extension (a D-residue); bradykinin, whole nonapeptide; Arg-Arg, C-terminal extension; also called r-BK-RR; D-Arg^0-Bradykinin-Arg-Arg; source: synthetic peptide (CanPeptide, Inc., solid-phase, ≥98.3% pure)) [D-Arg^0-BK-Arg-Arg]",IC50,[6],1050 nM
same,"contractile EC50, human isolated umbilical vein, with enalaprilat 1 μM (ACE blockade)",[7],1510 nM
same,"contractile EC50, human isolated umbilical vein, with enalaprilat 1 μM + Plummer’s inhibitor 1 μM (ACE blockade)",[7],1760 nM
